The target of one series is p38α MAP kinase (Homo sapiens, UniProt Q16539). The experiment in a line: Radiometric 33PanQinase p38α MAP kinase assay (ProQinase), ATF2 substrate. It counts as biochemical. To be noted: for remaining activity at 10 µM: compound at 10 μM, in duplicate, read-out: Residual Activity (%) p38α. From the text:
We selected p38α MAP kinase to survey the selectivity profile of this series of compounds because its kinase domain is among the most homologous to that of ALK5 [27].
(§1) All kinase experiments were completed by the ProQinase (Freiburg, Germany). All protein kinases were expressed in Sf9 insect cells or in E. coli as recombinant GST-fusion proteins or His-tagged proteins, either as full-length or enzymatically active fragments. All kinases were obtained from human cDNAs and purified by either GSH-affinity chromatography or immobilized metal. The purity of the protein kinases was examined by SDS-PAGE/Coomassie staining. The identity was checked by mass spectroscopy.
(§2) A radiometric protein kinase assay (^33PanQinase® activity assay) was used for measuring the kinase activity of the two protein kinases. All kinase assays were performed in 96-well FlashPlates^TM from PerkinElmer (Boston, MA, USA) in 50 μL reaction volumes. The reaction cocktail was pipetted in four steps in the following order: 20 μL of assay buffer (standard buffer), 5 μL of ATP solution (in H2O), 5 μL of test compound (in 10% DMSO), 20 μL enzyme/substrate mix.
(§3) The assay for all protein kinases contained 70 mM HEPES-NaOH pH 7.5, 3 mM MgCl2, 3 mM MnCl2, 3 μM Na-orthovanadate, 1.2 mM DTT, 50 μg/mL PEG20000, ATP, [γ-^33P]-ATP, protein kinase, and substrate.
(§4) The reaction cocktail was incubated at 30 °C for 60 min. The reaction was halted with 50 μL of 2% (v/v) H3PO4, plates were aspirated and washed two times with 200 μL 0.9% (w/v) NaCl. Incorporation of ^33Pi was established with a microplate scintillation counter (PerkinElmer, Boston, MA, USA). All assays were performed with a BeckmanCoulter/SAGIAN™ Core System.

The target of series [1] is T1, ALK5 (Homo sapiens, UniProt P36897).
T1 sequence (P36897 205-495 limits assumed): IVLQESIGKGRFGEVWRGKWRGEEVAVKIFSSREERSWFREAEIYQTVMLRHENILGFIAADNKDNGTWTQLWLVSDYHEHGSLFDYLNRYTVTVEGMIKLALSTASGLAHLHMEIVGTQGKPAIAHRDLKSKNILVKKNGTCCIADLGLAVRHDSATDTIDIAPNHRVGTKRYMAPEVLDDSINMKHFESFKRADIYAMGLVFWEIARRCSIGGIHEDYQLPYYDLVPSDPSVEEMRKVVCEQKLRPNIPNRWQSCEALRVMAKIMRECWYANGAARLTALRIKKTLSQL
Nature of the series: Radiometric 33PanQinase ALK5 kinase assay (ProQinase), casein substrate. In kind it is biochemical. As to conditions: for remaining activity at 10 µM: compound at 10 μM, in duplicate, read-out: Residual Activity (%) ALK5; for Selectivity Index: IC50 of p38α/IC50 of ALK5. Here is the method: To investigate whether compounds 14a–d, 15a–d, 16a–d, 17a–d, 18a–d, and 19a–d would inhibit ALK5, a kinase assay for preliminary screening was performed using the purified human ALK5 kinase domain produced in Sf9 insect cells and compounds at 10 μM.
as §1, §2, §3, §4

Series [2] has as its system ALK5. Details: method as in PMID 16271073. To be noted: cited from earlier work.

The source of these data is article PMC6320941, “Synthesis and Evaluation of 3-Substituted-4-(quinoxalin-6-yl) Pyrazoles as TGF-β Type I Receptor Kinase Inhibitors” (Molecules, 2018).

p38α MAP kinase, sequence (Q16539 whole entry, the tested form may be a part): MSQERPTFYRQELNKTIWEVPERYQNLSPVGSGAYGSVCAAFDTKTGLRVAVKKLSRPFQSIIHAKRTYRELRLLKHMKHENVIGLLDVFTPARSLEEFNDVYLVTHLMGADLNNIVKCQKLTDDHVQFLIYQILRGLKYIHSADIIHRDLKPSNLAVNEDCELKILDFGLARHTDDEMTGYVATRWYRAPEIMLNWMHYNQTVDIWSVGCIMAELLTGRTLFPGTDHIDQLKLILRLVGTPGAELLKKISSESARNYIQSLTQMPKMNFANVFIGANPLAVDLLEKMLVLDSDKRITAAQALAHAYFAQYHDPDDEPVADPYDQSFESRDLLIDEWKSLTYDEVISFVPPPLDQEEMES

The term melting point denotes the temperature, or range, at which the solid turns liquid. Molecule `CN(C)c1cccc(-c2nn(CC(=O)Nc3cccc(C#N)c3)cc2-c2ccc3nccnc3c2)n1` [Compound 14d, N-(3-Cyanophenyl)-2-(3-(6-(dimethylamino)pyridin-2-yl)-4-(quinoxalin-6-yl)-1H-pyrazol-1-yl)acetamide] registered a melting point of 218.5 to 221.5 °C. Further, at p38α MAP kinase, the remaining activity at 10 µM amounted to 121%. The remaining activity at 10 µM at ALK5 [1] is 95%.
One may read the IC50 as the concentration at which inhibition is half-maximal. Consider `Cc1cccc(-c2nn(C(=S)Nc3ccccc3)cc2-c2ccnc3ccccc23)n1` [Compound 6, A-83-01], for which the 50% inhibitory concentration (IC50) with ALK5 [2] is 0.012 µM.
With `CN(C)c1cccc(-c2nn(CC(=S)Nc3ccccc3)cc2-c2ccc3nccnc3c2)n1` [Compound 18a, 2-(3-(6-(Dimethylamino)pyridin-2-yl)-4-(quinoxalin-6-yl)-1H-pyrazol-1-yl)-N-phenylethanethioamide], the melting point was in the range of 182 to 184 °C. For the same molecule, on p38α MAP kinase, the IC50 is above 10 µM and the remaining activity at 10 µM was 119%. On ALK5 [1], half-maximal inhibition (IC50) required 5.75 µM, the “Selectivity Index” value is reported as above 2 and the remaining activity at 10 µM worked out at 29%.
As for `CN(C)c1cccc(-c2c(-c3ccc4nccnc4c3)cnn2CC(=O)Nc2cccc(F)c2)n1` [Compound 15c, 2-(5-(6-(Dimethylamino)pyridin-2-yl)-4-(quinoxalin-6-yl)-1H-pyrazol-1-yl)-N-(3-fluorophenyl)acetamide], the melting point was in the range of 146.5 to 147.6 °C. For the same molecule, on p38α MAP kinase, the remaining activity at 10 µM was found to be 109%. Also, the remaining activity at 10 µM on ALK5 [1] is 88%.
Consider `O=C(Cn1cc(-c2ccc3nccnc3c2)c(-c2ccncn2)n1)Nc1ccccc1F` [Compound 25b, N-(2-Fluorophenyl)-2-(3-(pyrimidin-4-yl)-4-(quinoxalin-6-yl)-1H-pyrazol-1-yl)acetamide], for which the melting point lay within 192.3 to 194.5 °C. The IC50 against p38α MAP kinase is above 10 µM. At ALK5 [1], the IC50 is 3.66 µM and the “Selectivity Index” value is on record as above 3. Besides, the “ALK5 inhibitory activity in words” value at ALK5 [1] (at up to 5.0 μM for 18a–d, 'at up to 2.26 μM' for pyrimidin-4-yl compounds) was “no significant ALK5 inhibition activity”.
For the molecule `CN(C)c1cccc(-c2nn(CC(=O)Nc3ccccc3F)cc2-c2ccc3nccnc3c2)n1` [Compound 14b, 2-(3-(6-(Dimethylamino)pyridin-2-yl)-4-(quinoxalin-6-yl)-1H-pyrazol-1-yl)-N-(2-fluorophenyl)acetamide], the melting point was in the range of 190.5 to 193 °C. Further, the remaining activity at 10 µM at p38α MAP kinase came out at 118%. Besides, the remaining activity at 10 µM on ALK5 [1] came out at 84%.
For the molecule `CN(C)c1cccc(-c2c(-c3ccc4nccnc4c3)cnn2CC(=O)Nc2ccccc2F)n1` [Compound 15b, 2-(5-(6-(Dimethylamino)pyridin-2-yl)-4-(quinoxalin-6-yl)-1H-pyrazol-1-yl)-N-(2-fluorophenyl)acetamide], the melting point was in the range of 130.2 to 133 °C. Further, the remaining activity at 10 µM on p38α MAP kinase came to 117%. On ALK5 [1], the remaining activity at 10 µM was 87%.
Taken in the same sequence, the figures for `Cc1csc(-c2nn(CC(=O)Nc3ccccc3F)cc2-c2ccc3nccnc3c2)n1` [Compound 16b, N-(2-Fluorophenyl)-2-(3-(4-methylthiazol-2-yl)-4-(quinoxalin-6-yl)-1H-pyrazol-1-yl)acetamide] were 197.5 to 200 °C, 103% and 5%.
Taken in the same sequence, the figures for `Cc1csc(-c2nn(CC(=O)Nc3cccc(C#N)c3)cc2-c2ccc3nccnc3c2)n1` [Compound 16d, N-(3-Cyanophenyl)-2-(3-(4-methylthiazol-2-yl)-4-(quinoxalin-6-yl)-1H-pyrazol-1-yl)acetamide] were 222.3 to 223 °C, 108% and 3%.
As for `Cc1csc(-c2nn(CC(=O)Nc3ccccc3)cc2-c2ccc3nccnc3c2)n1` [Compound 16a, 2-(3-(4-Methylthiazol-2-yl)-4-(quinoxalin-6-yl)-1H-pyrazol-1-yl)-N-phenylacetamide], the melting point lay within 190.2 to 192.5 °C. On p38α MAP kinase, the remaining activity at 10 µM is 98%. Moreover, the remaining activity at 10 µM on ALK5 [1] worked out at 5%.
With `CN(C)c1cccc(-c2nn(CC(=S)Nc3cccc(C#N)c3)cc2-c2ccc3nccnc3c2)n1` [Compound 18d, N-(3-Cyanophenyl)-2-(3-(6-(dimethylamino)pyridin-2-yl)-4-(quinoxalin-6-yl)-1H-pyrazol-1-yl)ethanethioamide], the melting point was in the range of 108.5 to 110 °C. At p38α MAP kinase, the concentration for half-maximal inhibition (IC50) was above 10 µM and the remaining activity at 10 µM turned out to be 119%. At ALK5 [1], the IC50 was above 10 µM and the remaining activity at 10 µM was 54%.
With `CN(C)c1cccc(-c2nn(CC(=O)Nc3ccccc3)cc2-c2ccc3nccnc3c2)n1` [Compound 14a, 2-(3-(6-(Dimethylamino)pyridin-2-yl)-4-(quinoxalin-6-yl)-1H-pyrazol-1-yl)-N-phenylacetamide], the melting point fell in the range of 212.5 to 214 °C. Further, the remaining activity at 10 µM on p38α MAP kinase came to 110%. The remaining activity at 10 µM on ALK5 [1] was determined as 85%.
